Patent US12195427B2, “MASP-2 inhibitors and methods of use” (priority 2018, dated 2025)

Target: MASP-2 CCP2-SP (Homo sapiens (Human), UniProt O00187)
Assay: MASP-2 co-crystallization, X-ray crystallography and structure analysis (H-bonds, van der Waals contacts);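 for Ligand-pharmacophore element distance, pharmacophore element C2: distance from averaged pharmacophore element to bound ligand; missing value means element absent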;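 for Ligand-pharmacophore element distance, pharmacophore element C3: distance from averaged pharmacophore element to bound ligand; missing value means element absent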;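 for Ligand-pharmacophore element distance, pharmacophore element C4: distance from averaged pharmacophore element to bound ligand; missing value means element absent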;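 for Ligand-pharmacophore element distance, pharmacophore element C5: distance from averaged pharmacophore element to bound ligand; missing value means element absent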
Parameters: van der Waals contact distance, MASP-2 HIS 483 atom CD2 / van der Waals contact distance, MASP-2 HIS 483 atom NE2 / van der Waals contact distance, SER 654 C to compound atom / van der Waals contact distance, SER 654 O to compound atom / van der Waals contact distance, TRP 655 C to compound atom / van der Waals contact distance, MASP-2 GLY 528 atom CA / van der Waals contact distance TRP 655 atom CZ3 / van der Waals contact distance TRP 655 atom N / van der Waals contact distance TRP 655 atom CE3 / van der Waals contact distance GLY 656 atom C / van der Waals contact distance GLY 656 atom CA / van der Waals contact distance GLY 656 atom O / van der Waals contact distance, MASP-2 TYR 607 atom CD1 / van der Waals contact distance, MASP-2 PRO 606 atom O / d(C3,CA1) / d(CA1,N1)2 / d(H4,O1) / d(H4,O2) / d(O1,O2) / d(CA1,O2) / d(CA6,O1) / d(CA6,O2) / d(CA1,C5) / d(O2,H3) / d(N2,C2) / d(CA5,N2) / d(N2,C4) / d(N2,C6) / d(N2,CA3) / d(N2,O3) / d(O4,H2): unit not given beside the values
Conditions: for Ligand-pharmacophore element distance, pharmacophore element C2 / Ligand-pharmacophore element distance, pharmacophore element C3 / Ligand-pharmacophore element distance, pharmacophore element C4 / Ligand-pharmacophore element distance, pharmacophore element C5 / Ligand-pharmacophore element distance, pharmacophore element C6 / Ligand-pharmacophore element distance, pharmacophore element C7 / Ligand-pharmacophore element distance, pharmacophore element CA1 / Ligand-pharmacophore element distance, pharmacophore element CA2 / Ligand-pharmacophore element distance, pharmacophore element CA3 / Ligand-pharmacophore element distance, pharmacophore element CA4 / Ligand-pharmacophore element distance, pharmacophore element CA5 / Ligand-pharmacophore element distance, pharmacophore element CA6: Table A4-1
Outline: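 Human MASP-2 CCP2-SP (± 6His) expressed in E. coli and crystallized; crystals soaked in crystallization solution containing inhibitor, cryoprotected with 20% glycerol or frozen directly. Synchrotron data at 1.0 wavelength; molecular replacement from 1Q3X, partial refinement; one ligand pose analyzed; LigPlot+ contacts may include H-bonds.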

[1] = Table A5-1 pharmacophore: distance between elements, S2/S1 region
[2] = Table A5-2 pharmacophore distance, S3/S4 region
[3] = Table A7-1, between pharmacophore elements of the bound compound
[4] = Table A7-2, between pharmacophore elements of the bound compound
[5] = Table A8-6, nearest protein atom in cell to the left

Sequence of MASP-2 CCP2-SP (O00187 445-686): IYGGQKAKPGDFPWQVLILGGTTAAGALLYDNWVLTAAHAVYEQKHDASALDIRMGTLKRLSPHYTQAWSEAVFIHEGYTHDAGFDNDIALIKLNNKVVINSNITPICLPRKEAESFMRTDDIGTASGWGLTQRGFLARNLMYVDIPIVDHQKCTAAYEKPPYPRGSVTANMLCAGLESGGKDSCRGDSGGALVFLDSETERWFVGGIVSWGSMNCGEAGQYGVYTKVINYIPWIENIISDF
Sequence of MASP-2 CCP2-SP (O00187 364-432 partner): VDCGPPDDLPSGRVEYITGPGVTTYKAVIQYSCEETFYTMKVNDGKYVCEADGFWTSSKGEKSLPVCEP

| Compound | Ligand-pharmacophore element distance, pharmacophore element C2 | Ligand-pharmacophore element distance, pharmacophore element C3 | Ligand-pharmacophore element distance, pharmacophore element C4 | Ligand-pharmacophore element distance, pharmacophore element C5 | Ligand-pharmacophore element distance, pharmacophore element C6 | Ligand-pharmacophore element distance, pharmacophore element C7 | Ligand-pharmacophore element distance, pharmacophore element CA1 | Ligand-pharmacophore element distance, pharmacophore element CA2 | Ligand-pharmacophore element distance, pharmacophore element CA3 | Ligand-pharmacophore element distance, pharmacophore element CA4 | Ligand-pharmacophore element distance, pharmacophore element CA5 | Ligand-pharmacophore element distance, pharmacophore element CA6 | d(CA1,O1) [1] | d(CA1,O2) [1] | d(H4,O1) [1] | d(H4,O2) [1] | d(O1,O2) [1] | d(N2,CA2) [2] | d(O2,H3) [2] | d(O2,N2) [2] | other results |
| --- | --- | --- | --- | --- | --- | --- | --- | --- | --- | --- | --- | --- | --- | --- | --- | --- | --- | --- | --- | --- | --- |
| CC(=O)Nc1ccc(CCNC(CCc2ccccc2)C(=O)NC(C)C(=O)NCc2ccc(C(=N)N)cc2)cc1.Cl.Cl (centres unmarked) [1345_2] | 0 | 0 | 0 | 0 | 0 | 0 | 0.45 | 0.89 | 1.13 | 0 | 0 | 0 | 4.58 | 4.16 | 4.97 | 4.32 | 3.32 | 5.98 | 5.51 | 2.87 | d(N2,CA3) [2]: 5.15; d(N2,O3) [2]: 8.73; a(CA1, O1, O2) (Table A6-1 pharmacophore angle): 105.43; a(O1, O2, H4) (Table A6-1 pharmacophore angle): 138.87; a(O1, O2, H3) (Table A6-2 pharmacophore angle): 152.27; a(O1, O2, N2) (Table A6-2 pharmacophore angle): 142.63; a(O2, N2, CA2) (Table A6-2 pharmacophore angle): 153.90; a(O2, N2, CA3) (Table A6-2 pharmacophore angle): 151.66; a(O2, N2, O3) (Table A6-2 pharmacophore angle): 162.76; Pharmacophore torsion angle a(H4, O1, O2, H3) [3]: 49.59; Pharmacophore torsion angle a(H4, O1, O2, N2) [3]: 128.64; Pharmacophore torsion angle a(O1, H4, O2, CA1) [3]: −68.67; Pharmacophore torsion angle a(O1, O2, N2, CA2) [4]: 129.85; Pharmacophore torsion angle a(O1, O2, N2, CA3) [4]: −34.52; Pharmacophore torsion angle a(O1, O2, N2, O3) [4]: −20.78 |
| C[C@H](NC(=O)[C@H](N)C1Cc2ccccc2C1)C(=O)NCc1ccc2c(N)nccc2c1.Cl.Cl [1088_B] | 1.93 | 0 | 0 | 0 | 0 | 0 | 0.62 | 0.2 | 0 | 0 | 0 | 0 | 5.22 | 4.78 | 6.73 | 6.06 | 3.02 | 6.13 | 3.82 | 2.68 | d(N2,C2) [2]: 3.90; a(CA1, O1, O2) (Table A6-1 pharmacophore angle): 99.27; a(O1, O2, H4) (Table A6-1 pharmacophore angle): 153.40; a(O1, O2, H3) (Table A6-2 pharmacophore angle): 144.52; a(O1, O2, N2) (Table A6-2 pharmacophore angle): 135.22; a(O2, N2, C2) (Table A6-2 pharmacophore angle): 140.65; a(O2, N2, CA2) (Table A6-2 pharmacophore angle): 154.54; Pharmacophore torsion angle a(H4, O1, O2, H3) [3]: 45.99; Pharmacophore torsion angle a(H4, O1, O2, N2) [3]: 121.15; Pharmacophore torsion angle a(O1, H4, O2, CA1) [3]: −63.34; Pharmacophore torsion angle a(O1, O2, N2, C2) [3]: 129.99; Pharmacophore torsion angle a(O1, O2, N2, CA2) [4]: 134.51; Pharmacophore protein distance to MET_658 (first MET_658 column) (Table A8-6, 6th residue column, nearest protein atom in cell to the left): 3.04; Pharmacophore protein distance to MET_658 (second MET_658 column) (Table A8-6, 9th residue column, nearest protein atom in cell to the left): 3.12; Pharmacophore protein distance to GLY_528 [5]: 3.66; Pharmacophore protein distance to PHE_529 [5]: 2.75; Pharmacophore protein distance to PRO_608 [5]: 3.74; Pharmacophore protein distance to SER_611 [5]: 2.71; Pharmacophore protein distance to TRP_655 (Table A8-6, pharmacophore elements C6, CA3, O3, H1, nearest protein atom in cell to the left): 3.75 |
| Cc1nc(N)ccc1CNC(=O)C(C)NC(=O)C1CC(c2cccc3ccccc23)CCN1.Cl.Cl (centres unmarked) [1297_1] | 0.34 | 0.3 | 0 | 0 | 0 | 0 | 0.39 | 0.19 | 0 | 1.24 | 0 | 0 | 4.35 | 3.86 | 4.31 | 3.81 | 3.46 | 5.68 | 4.23 | 2.71 | d(C3,CA1) [1]: 2.87; d(CA1,N1)2 [1]: 1.39; d(N2,C2) [2]: 1.44; a(C3, CA1, O1) (Table A6-1 pharmacophore angle): 149.59; a(CA1, O1, O2) (Table A6-1 pharmacophore angle): 107.14; a(O1, O2, H4) (Table A6-1 pharmacophore angle): 130.08; a(N1, CA1, O1) b) (Table A6-1 pharmacophore angle, Methyl-amino-pyridine compounds): 174.57; a(O1, O2, H3) (Table A6-2 pharmacophore angle): 144.22; a(O1, O2, N2) (Table A6-2 pharmacophore angle): 143.88; a(O2, N2, C2) (Table A6-2 pharmacophore angle): 130.88; a(O2, N2, CA2) (Table A6-2 pharmacophore angle): 156.06; Pharmacophore torsion angle a(C3, CA1, O1, H4) [3]: 30.15; Pharmacophore torsion angle a(H4, O1, O2, H3) [3]: 50.42; Pharmacophore torsion angle a(H4, O1, O2, N2) [3]: 137.09; Pharmacophore torsion angle a(N1, CA1, O1, H4) [3]: 26.85; Pharmacophore torsion angle a(O1, H4, O2, CA1) [3]: −85.98; Pharmacophore torsion angle a(O1, O2, N2, C2) [3]: 117.40; Pharmacophore torsion angle a(O1, O2, N2, CA2) [4]: 131.38; Pharmacophore torsion angle a(O1, O2, N2, CA4) [4]: 110.58 |
